Results taken from patent publication US20050267204A1, “Synergistic gold-containing compositions” (MEDICAL INNOVATIONS LIMITED, priority 1996, published 2005).
Where two headings read alike, the source gives them in different places.

Assays:
Assay type in all cases: in vivo, BALB/c mice
[1] = tested on: dermal inflammatory cell density; assay: Time course of TPA effects on skin of mice: dermal inflammatory cell density; details: for Increase in dermal inflammatory cell density: single application 100 μL TPA 0.01% in acetone
Method: (§1) Infiltration of inflammatory cells was determined by the same image analysis system using the section taken from the block of mouse skin embedded in paraffin wax or Spurr's resin and stained with haematoxylin and eosin or toluidine blue respectively. For each section, 10 fields, unless otherwise stated, were chosen randomly and the cell density per mm^2 of field determined. The average value for the 10 fields was obtained and entered as one value for each mouse. The mean and SEM for the six mice in each treatment group were calculated.
The measurement of the inflammatory cell infiltration included the background values which included other materials in the dermis stained in the same way. However, the increase, if there is any, reflects the migration of inflammatory cells.
(§2) This study was conducted to determine the time course of effects produced by applying TPA to mice and killing at intervals of 1, 2, 3, 5 and 8 days. Peak times for epidermal hyperplasia, dermal inflammation and skin-fold thickness were determined. The object of this study was to determine the best time to sacrifice TPA-treated mice so as to obtain the maximum response to TPA. […] It was thus expected that a compromise time would have to be selected.
(§3) Forty two female BALB/c strain mice were divided into the treatment groups and the mice were treated with a single application (100 μL) of TPA (0.01% in acetone) and sacrificed at days 1, 2, 3, 5 and 8 and the time course of TPA effects on epidermal hyperplasia, dermal inflammatory cell infiltration and skin-fold thickness measured as described in Example 1.

skin-fold thickness = assay: Time course of TPA effects on skin of mice: skin-fold thickness; details: for Increase in skin-fold thickness: single application 100 μL TPA 0.01% in acetone
Method: The back skin of shaved mice was folded and measured by using a “Etalon” micrometer screw gauge. One measurement was taken for each mouse.
as §2, §3

epidermal thickness = assay: Time course of TPA effects on skin of mice: epidermal thickness; details: for Increase in epidermal thickness: single application 100 μL TPA 0.01% in acetone
Method: (§4) Epidermal thickness was determined by image analysis. This image analysis system was a minicomputer (Tracor Northern TN8500) attached to a light microscope (Zeiss Axioplan) and a camcorder (Sony DXC-3000P). Sections were taken from each tissue block and 20 measurements were taken at fixed intervals from each section. The average value for the 20 measurements was obtained and entered as one value for each mouse. The mean and SEM for the six mice in each treatment group were calculated.
as §2, §3

[2] = tested on: TPA-induced inflammatory cell infiltration into the dermis; assay: Inhibition of TPA-induced inflammatory cell infiltration into the dermis of mice; details: for Relative potency: hydrocortisone acetate = 1.0
Method: (§5) The mice were housed in stainless steel cages, 6 mice per cage under normal laboratory conditions (room temperature at about 22° C.) at least 7 days before the experiments for acclimatization. Food and water were allowed ad libitum throughout the experiment period. The backs of the mice were shaved with an electric clipper two days before each treatment and only those mice showing no hair regrowth were used (i.e., the mice in the resting phase of the hair growth cycle were selected). During treatment, the mice were held with their tails and put on top of the cage so that they grasped the cage and rested there. The solutions were applied to an area approximately 2 cm×2 cm on the shaved back of the mice by using a “Pipetman” to apply the solution. If auranofin ointment or ointment base was applied, the amount was standardized by using a microspatula which was crimped at one end, the ointment was then put into the ridge and the excess removed by means of another microspatula and applied sparingly twice a day. After a fixed time, the mice were killed routinely by cervical dislocation between 9 a.m. and 11 a.m. to avoid variations due to circadian rhythms, and an area (1 cm×1 cm) was excised from the centre of the treated area by scalpel and scissors. The rest of the tissues were disposed by combustion. The tissues were then fixed, embedded, sectioned and stained.
as §1
The measurement of the inflammatory cell infiltration included the background values which included other materials in the dermis stained in the same way.
(§6) The percent inhibition of drug on TPA-induced skin responses (i.e., epidermal hyperplasia, inflammatory cell infiltration and skin-fold thickness) was calculated by using the following formula: [formula]
(§7) This provides estimates of (a) the potency, (b) the efficacy or maximum effect (Emax) and the slope of the log concentration-response curve by using Hill coefficient (γ). The Hill Equation may be expressed as follows: [formula] where IC50 is the drug concentration producing 50% of the maximal response and Emax refers to the maximal effect produced by the drug and is also termed efficacy. Efficacy is the measurement of the intrinsic ability of a drug to initiate a response once it occupies receptor sites. […] The Hill coefficient (γ) measures the slope of the dose-effect curve which can be markedly influenced by the shape of the curve that describes the binding of the drug to the receptor. For many drugs, y lies between 0.6 and 1.5. […] On the other hand, when γ is less than 1, with a shallow hyperbolic concentration effect relationship, the activity occurs over a wide range of drug levels.
(§8) In the present study, concentration-response curves were obtained for a series of corticosteroids. In these experiments, curve fitting was accomplished using a computer programme called “The Scientist” (MicroMath Scientific Software, Salt Lake City, Utah, USA.) in which the parameters, Emax, IC50 and Hill coefficient (γ) for each steroids were estimated by using non-linear regression and least square fits.
Mice were divided into treatment groups. TPA and corticosteroids were premixed to the concentrations required and applied to the backs of mice immediately.

[3] = tested on: TPA-induced epidermal hyperplasia; assay: Inhibition of TPA-induced epidermal hyperplasia (epidermal thickness) on back skin of mice; details: for Relative potency: hydrocortisone acetate = 1.0
Method: as §5, §4, §6, §7, §8
Mice were divided into treatment groups. TPA and corticosteroids were premixed to the concentrations required and applied to the backs of mice immediately. For those steroids not very soluble in acetone (i.e., betamethasone, dexamethasone, hydrocortisone and hydrocortisone acetate), the drugs were dissolved in 100 μL dimethylformamide before further dilution with acetone. The efficacy of corticosteroids in inhibiting epidermal hyperplasia, inflammatory cell infiltration and skin-fold thickness was assessed as described previously. Concentration-response curves were determined after computer-fitting of data.

[4] = Hill equation fit, means ± SD, steroid premixed with TPA, topical
[5] = Hill equation fit, means ± SD, steroid premixed with TPA, topical, read-out: IC50 (M × 10^−4)
[6] = IC50 without auranofin divided by IC50 with auranofin (0.2%)
[7] = with auranofin (0.2%), from computer fitted graph, means ± SD, read-out: Apparent IC50 (M × 10^−4) with auranofin
[8] = without auranofin, from computer fitted graph, means ± SD, read-out: Apparent IC50 (M × 10^−4) without auranofin

CCCCCCCCCCCCCC(=O)O[C@@H]1[C@@H](C)[C@@]2(O)[C@@H](C=C(CO)C[C@]3(O)C(=O)C(C)=C[C@@H]23)[C@@H]2C(C)(C)[C@]12OC(C)=O [TPA, 12-O-tetradecanoylphorbol 13-acetate]
Increase in dermal inflammatory cell density ([1]; Day 1): 397% | Increase in dermal inflammatory cell density ([1]; Day 2): 296% | Increase in dermal inflammatory cell density ([1]; Day 3): 272% | Increase in dermal inflammatory cell density ([1]; Day 5): 280% | Increase in dermal inflammatory cell density ([1]; Day 8): 225% | Time of peak effect, dermal inflammation ([1]; single application of TPA): 24 h | Increase in skin-fold thickness (skin-fold thickness; Day 1): 193% | Increase in skin-fold thickness (skin-fold thickness; Day 2): 142% | Increase in skin-fold thickness (skin-fold thickness; Day 3): 124% | Increase in skin-fold thickness (skin-fold thickness; Day 5): 116% | Increase in skin-fold thickness (skin-fold thickness; Day 8): 107% | Time of peak effect, skin-fold thickening (skin-fold thickness; single application of TPA): 24 h | Increase in epidermal thickness (epidermal thickness; Day 1): 326% | Increase in epidermal thickness (epidermal thickness; Day 2): 382% | Increase in epidermal thickness (epidermal thickness; Day 3): 393% | Increase in epidermal thickness (epidermal thickness; Day 5): 270% | Increase in epidermal thickness (epidermal thickness; Day 8): 130% | Time of peak effect, epidermal hyperplasia (epidermal thickness; single application of TPA): 72 h

C[C@@H]1C[C@H]2[C@@H]3CCC4=CC(=O)C=C[C@]4(C)[C@@]3(Cl)[C@@H](O)C[C@]2(C)[C@@]1(OC(=O)c1ccco1)C(=O)CCl [Mometasone furoate, mometasone furoate]
Emax (% inhibition) [2, 4]: 89.98 ± 4.88^ % inhibition | IC50 [2, 5]: 20 ± 5 µM | Synergistic factor [2, 6]: 37.50 | Synergism with auranofin, inflammatory cell infiltration (in words) ([2]; auranofin (0.2%), FIG. 2): massive synergism | Concentration that, in the absence of auranofin, produced an equal effect to the combination ([2]; equal to 5×10^−4 M with auranofin (0.2%), FIG. 2): 1 mM | IC50 ([2]; from Hill equation, concentration that produced 50% of Emax, read-out: IC50 for inhibition of inflammatory cell infiltration in the dermis (M × 10^−4)): 20 µM | Relative potency ([2]; from Hill-equation IC50): 386.65 | Relative potency ([2]; from IC50 read from curve): 366.67 | Increase in apparent IC50 ([2]; in presence of auranofin (0.2%), Table 10): about 3,800% | Potency for inhibition of TPA-induced inflammatory cell infiltration (in words) ([2]; ranking in text): strong to very strong anti-inflammatory effect | IC50 ([2]; read from concentration-response curve, concentration that inhibited 50% of the TPA effect, read-out: IC50 for inhibition of inflammatory cell infiltration in the dermis (M × 10^−4)): 30 µM | IC50 [2, 7]: 0.8 ± 0.1 µM | IC50 [2, 8]: 30 ± 5 µM | Emax (% inhibition) [3, 4]: 83.31 ± 3.04 % inhibition | IC50 [3, 5]: 23 ± 4 µM | Synergistic factor [3, 6]: 1.29 | Synergism with auranofin, epidermal hyperplasia (in words) ([3]; auranofin (0.2%) co-administered): no synergism or even additive effect | IC50 ([3]; from Hill equation, concentration that produced 50% of Emax, read-out: IC50 for inhibition of epidermal thickening (M × 10^−4)): 23 µM | Relative potency ([3]; from Hill-equation IC50): 159.43 | Relative potency ([3]; from IC50 read from curve): 175.0 | Potency for inhibition of TPA-induced epidermal hyperplasia (in words) ([3]; ranking in text): strong to very strong potencies | IC50 ([3]; read from concentration-response curve, concentration that inhibited 50% of the TPA effect, read-out: IC50 for inhibition of epidermal thickening (M × 10^−4)): 40 µM | IC50 [3, 7]: 31 ± 5 µM | IC50 [3, 8]: 40 ± 4 µM
